Patent US6287553A, “Skin care composition” (Unilever Home & Personal Care USA, division of Conopco, Inc., priority 1998, dated 2001)
Entries after “also recorded” stand apart in the source; their conditions may differ.

Assays:
[1] = tested on: keratinocytes; test: Keratinocyte SDS viability assay (Neutral Red); type: cell-based; conditions: 24 h, read-out: cell viability produced by SDS
Protocol: Keratinocytes were grown in 96 well plates to approximately 80% confluency in keratinocyte growth medium (KGM) which was then replaced with KGM without hydrocortisone for 24-48 hours. The cells were then treated with a concentration of sodium dodecyl sulphate (SDS) which will produce cell viability of approximately 50% ([…]). The test compounds "c9 t11 CLA" and "t10 c12 CLA" in table 7 are the same as the agents described above in Example 3. […] After incubating for 24 hours the medium was removed and the viability determined by the Neutral Red method. With this method the cells were incubated for 3 hours in KGM containing 25 μg/ml neutral red after which the medium was removed and the cells were then extracted with […] of 1% (v/v) acetic acid, 50% (v/v) ethanol for 30 min units. The absorbance of the extract at 562 nm was determined and the viability evaluated by reference to wells which contained neither SDS nor test compounds.

[2] = tested on: procollagen-I; test: Immunohistochemical analysis of procollagen-I expression in photodamaged forearm skin after topical retinoic acid; type: in vivo, human (women)
Text: (§1) Two groups of women were recruited with identical or nearly identical degrees of mild to moderate photodamage on each outer forearm. They were supplied with 0.05% retinoic acid in a moisturising base (Retinova®) and also with a colour matched moisturising cream with similar sensory characteristics (Dermacare® lotion) but no active ingredients as a placebo control. Each participant of the two groups applied the Retinova® to one outer forearm and placebo (Dermacare®) to the other outer forearm. Group 1 applied the products daily to their outer forearms for 14 weeks and the Group 2 applied the products to their outer forearms for 28 weeks. At the end of the studies two full thickness 4 mm punch biopsies were taken from the treated areas of each forearm. Immunohistochemical analysis of the biopsy tissue taken from the participants was performed to identify the effect of retinoic acid treatment on the expression of the skin extracellular matrix components decorin and procollagen-I as compared with the placebo treated forearms. The following procedure was followed:
(§2) Antibody dilution buffer for wax sections was composed of Tris Buffered Saline (TBS), 3% bovine serum albumin (BSA), 0.05% Triton X-100 and 0.05% sodium azide. Primary antibodies for procollagen-I (amino terminal) were obtained from Chemicon International Inc. (cat# MAB 1912, rat IgG1) and used on wax sections at a dilution of 1:800, overnight at 4° C. after the section had been pre-treated trypsin (0.5 mg/ml, 25 minutes, 37° C.). Primary antibodies for decorin were obtained from Biogenesis (rabbit polyclonal) and used on wax sections at a dilution of 1:800, overnight at 4° C. Anti-rat biotinylated secondary antibodies were obtained from DAKO (cat# E0468, rabbit polyclonal) was applied to wax sections at a dilution of 1:400. Anti-rabbit biotinylated secondary antibodies were obtained from Amersham (cat# RPN 1004, donkey polyclonal) was applied to wax sections at a dilution of 1:400. Streptavidin conjugated alkaline phosphatase was obtained from Zymed (cat# 43-4322) and used at a concentration of 1:2500. […]

[3] = tested on: decorin; test: Immunohistochemical analysis of decorin expression in photodamaged forearm skin after topical retinoic acid; type: in vivo, human (women)
Text: as §1, §2

[4] = tested on: decorin; test: Decorin synthesis in human dermal fibroblasts (dot blot assay of conditioned medium); type: cell-based; conditions: Fibroblast, 24 h, read-out: upregulation of decorin synthesis
Protocol: Preparation of Dermal Fibroblast Conditioned Medium Primary human foreskin fibroblasts at passage 2 (P2) were seeded into 12-well plates at 10000 cells/cm^2 and maintained for 24 hours in an atmosphere of 5% carbon dioxide and 4% oxygen in Dulbeccos Modified Eagles Medium (DMEM) supplemented with 10% foetal calf serum. After this time the cells were washed with serum free DMEM and then incubated in fresh serum free DMEM for a further 60 hours. The fibroblast monolayers were then washed again with serum free DMEM. Test reagents and vehicle controls were added to the cells in triplicate in a final volume of 0.4 ml/well fresh serum free DMEM and incubated for a further 24 hours. This fibroblast conditioned medium was either analysed immediately or snap frozen in liquid nitrogen and stored at -70° C. for future analysis. The cells were then counted and data from the dot-blot analysis subsequently standardised to cell number.
Samples of conditioned medium from dermal fibroblasts treated with vehicle (as a control) or test reagents were supplemented with 20 mM dithiothreitol (1:10 dilution of 200 mM stock solution) and 0.1% sodium dodecylsulphate (1:100 dilution of 10% stock solution), mixed well and then incubated at 75° C. for 2 minutes. […]

[5] = tested on: skin; conditions: topical treatment of skin; Griffiths et al. 1993; cited from earlier work
[6] = Group 1 after 14 weeks, 0.05% retinoic acid (Retinova) daily vs placebo, total 16 participants
[7] = Group 2 after 28 weeks, 0.05% retinoic acid (Retinova) vs placebo, total 15 participants
[8] = topical retinoic acid (Retinova) vs placebo (Dermacare)

SMILES	viability at 5 µg/mL [1]	No. of Participants showing marked increase in expression of procollagen-I [2, 6]	No. of Participants showing marked increase in expression of procollagen-I [2, 7]	procollagen-I expression in photodamaged skin [2, 8]	No. of Participants showing marked increase in expression of decorin [3, 6]	No. of Participants showing marked increase in expression of decorin [3, 7]	decorin expression in photodamaged skin [3, 8]	activity at 1 µM [4]	wrinkle effacement / dermal repair [5]
CCCCCCCCCCCCOS(=O)(=O)[O-].[Na+] [sodium dodecyl sulphate (SDS), sodium dodecyl sulphate]	~50%								
CC1=C(/C=C/C(C)=C/C=C/C(C)=C/C(=O)O)C(C)(C)CCC1 [Retinoic acid, retinoic acid]		9 No. of Participants	10 No. of Participants	marked upregulation	10 No. of Participants	15 No. of Participants	marked upregulation	138 ± 14%	induces dermal repair of photodamaged skin; also recorded: wrinkle effacement and dermal repair following topical treatment of skin with retinoic acid arises through new collagen deposition and synthesis in the skin
